The supplement of paper PMC4862054

Key:
Settings in all cases: incubation time: 72 h
CAL-51 [1] = test: normalised response (% of control), CellTox Green; higher = less cell death (100 = DMSO, 0 = benzethonium chloride kill control)
Summary of the method: (§1)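 Breast cancer cell lines in 20 µl suspension were added to 384-well plates containing compound at 5 concentrations, spaced in 10-fold steps across a 10,000-fold range chosen for each compound, and incubated for 72 h. CellTox Green fluorescence was read at 485/520 nm, followed by CellTiter-Glo luminescence after 10 min at room temperature. Signals on each plate were normalised so that 0.1 % DMSO equals 100 and a positive kill control equals 0. Every value in the table is the normalised signal at one concentration of the series.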

BT-474 [2] = test: as above
Summary of the method: as §1

BT-549 [3] = test: as above
Summary of the method: as §1

CAL-85-1 [4] = test: as above
Summary of the method: as §1

CAL-120 [5] = test: as above
Summary of the method: as §1

MFM-223 [6] = test: as above
Summary of the method: as §1

MDA-MB-436 [7] = test: as above
Summary of the method: as §1

MDA-MB-231 [8] = test: as above
Summary of the method: as §1

MDA-MB-453 [9] = test: as above
Summary of the method: as §1

DU-4475 [10] = test: as above
Summary of the method: as §1

HCC1599 [11] = test: as above
Summary of the method: as §1

MDA-MB-468 [12] = test: as above
Summary of the method: as §1

HCC1143 [13] = test: as above
Summary of the method: as §1

Hs578T [14] = test: as above
Summary of the method: as §1

HCC1937 [15] = test: as above
Summary of the method: as §1

CAL-51 [16] = test: normalised response (% of control), CellTiter-Glo; higher = more viable cells (100 = DMSO, 0 = benzethonium chloride kill control)
Description: (§2)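 DSRT, 72 h incubation, CellTox Green / CellTiter-Glo readout. Signal is normalised to DMSO and benzethonium chloride controls. Value is the normalised response at the highest dose.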

BT-474 [17] = test: as above
Description: as §2

BT-549 [18] = test: as above
Description: as §2

CAL-85-1 [19] = test: as above
Description: as §2

CAL-120 [20] = test: as above
Description: as §2

MFM-223 [21] = test: as above
Description: as §2

HDQ-P1 [22] = test: as above
Description: as §2

MDA-MB-436 [23] = test: as above
Description: as §2

MDA-MB-231 [24] = test: as above
Description: as §2

MDA-MB-453 [25] = test: as above
Description: as §2

DU-4475 [26] = test: as above
Description: as §2

HCC1599 [27] = test: as above
Description: as §2

MDA-MB-468 [28] = test: as above
Description: as §2

HCC1143 [29] = test: as above
Description: as §2

CAL-148 [30] = test: as above
Description: as §2

Hs578T [31] = test: as above
Description: as §2

HCC1937 [32] = test: as above
Description: as §2

MCF-10A [33] = test: as above
Description: as §2

SK-BR-3 [34] = test: as above
Description: as §2

HDQ-P1 [35] = test: normalised response (% of control), CellTox Green; higher = less cell death (100 = DMSO, 0 = benzethonium chloride kill control)
Summary of the method: as §1

CAL-148 [36] = test: as above
Summary of the method: as §1

MCF-10A [37] = test: as above
Summary of the method: as §1

CAL-51 [38] = test: normalised response (% of control), CellTiter-Glo; higher = more viable cells (100 = DMSO, 0 = benzethonium chloride kill control); remark: listed apart in the source
Summary of the method: as §1

BT-474 [39] = test: as above; remark: listed apart in the source
Summary of the method: as §1

BT-549 [40] = test: as above; remark: listed apart in the source
Summary of the method: as §1

CAL-85-1 [41] = test: as above; remark: listed apart in the source
Summary of the method: as §1

CAL-120 [42] = test: as above; remark: listed apart in the source
Summary of the method: as §1

MFM-223 [43] = test: as above; remark: listed apart in the source
Summary of the method: as §1

HDQ-P1 [44] = test: as above; remark: listed apart in the source
Summary of the method: as §1

MDA-MB-436 [45] = test: as above; remark: listed apart in the source
Summary of the method: as §1

MDA-MB-231 [46] = test: as above; remark: listed apart in the source
Summary of the method: as §1

MDA-MB-453 [47] = test: as above; remark: listed apart in the source
Summary of the method: as §1

DU-4475 [48] = test: as above; remark: listed apart in the source
Summary of the method: as §1

HCC1599 [49] = test: as above; remark: listed apart in the source
Summary of the method: as §1

MDA-MB-468 [50] = test: as above; remark: listed apart in the source
Summary of the method: as §1

HCC1143 [51] = test: as above; remark: listed apart in the source
Summary of the method: as §1

CAL-148 [52] = test: as above; remark: listed apart in the source
Summary of the method: as §1

Hs578T [53] = test: as above; remark: listed apart in the source
Summary of the method: as §1

HCC1937 [54] = test: as above; remark: listed apart in the source
Summary of the method: as §1

MCF-10A [55] = test: as above; remark: listed apart in the source
Summary of the method: as §1

SK-BR-3 [56] = test: as above; remark: listed apart in the source
Summary of the method: as §1

Structure (SMILES) | normalised response (CAL-51 [1]) [%] | normalised response (BT-474 [2]) [%] | normalised response (BT-549 [3]) [%] | normalised response (CAL-85-1 [4]) [%] | normalised response (CAL-120 [5]) [%] | normalised response (MFM-223 [6]) [%] | normalised response (MDA-MB-436 [7]) [%] | normalised response (MDA-MB-231 [8]) [%] | normalised response (MDA-MB-453 [9]) [%] | normalised response (DU-4475 [10]) [%] | normalised response (HCC1599 [11]) [%] | normalised response (MDA-MB-468 [12]) [%] | normalised response (HCC1143 [13]) [%] | normalised response (Hs578T [14]) [%] | normalised response (HCC1937 [15]) [%] | normalised response (HDQ-P1 [35]) [%] | normalised response (CAL-148 [36]) [%] | normalised response (MCF-10A [37]) [%] | normalised response (CAL-51 [38]) [%] | normalised response (BT-474 [39]) [%] | further results
O=C(O)C(=O)O.[NH-][C@@H]1CCCC[C@H]1[NH-].[Pt+2] [Oxaliplatin] (10000 nM) | 79.2 | 96.6 | 108 | 128 | 99.1 | 93 | 62 | 93.5 | 98.6 | 96.8 | 98.3 | 124 | 68.5 | 107 | 92.8 |  |  |  |  |  | normalised response (CAL-51 [16]): 91.5%; normalised response (BT-474 [17]): 100%; normalised response (BT-549 [18]): 101%; normalised response (CAL-85-1 [19]): 102%; normalised response (CAL-120 [20]): 106%; normalised response (MFM-223 [21]): 86.9%; normalised response (HDQ-P1 [22]): 102%; normalised response (MDA-MB-436 [23]): 98.4%; normalised response (MDA-MB-231 [24]): 91.5%; normalised response (MDA-MB-453 [25]): 89.5%; normalised response (DU-4475 [26]): 86.5%; normalised response (HCC1599 [27]): 97.3%; normalised response (MDA-MB-468 [28]): 97.2%; normalised response (HCC1143 [29]): 99.8%; normalised response (CAL-148 [30]): 85.5%; normalised response (Hs578T [31]): 97%; normalised response (HCC1937 [32]): 98.4%; normalised response (MCF-10A [33]): 86.4%; normalised response (SK-BR-3 [34]): 91.9%
C=CCc1cccc(/C=N/NC(=O)CN2CCN(Cc3ccccc3)CC2)c1O [PAC-1] (100 nM) | 98.2 | 103 | 101 | 99.7 | 106 | 98.7 | 83.5 | 116 | 107 | 102 | 99.4 | 79.1 | 110 | 84.3 | 105 | 100 | 107 | 75.2 | 91.8 | 102 | normalised response (BT-549 [40]): 104%; normalised response (CAL-85-1 [41]): 103%; normalised response (CAL-120 [42]): 103%; normalised response (MFM-223 [43]): 102%; normalised response (HDQ-P1 [44]): 99.6%; normalised response (MDA-MB-436 [45]): 99.3%; normalised response (MDA-MB-231 [46]): 107%; normalised response (MDA-MB-453 [47]): 102%; normalised response (DU-4475 [48]): 105%; normalised response (HCC1599 [49]): 118%; normalised response (MDA-MB-468 [50]): 99.4%; normalised response (HCC1143 [51]): 101%; normalised response (CAL-148 [52]): 103%; normalised response (Hs578T [53]): 104%; normalised response (HCC1937 [54]): 97.1%; normalised response (MCF-10A [55]): 111%; normalised response (SK-BR-3 [56]): 108%
CNC(=O)c1cc(Oc2ccc(NC(=O)Nc3cc(C(C)(C)C)nn3-c3ccc4ncccc4c3)c(F)c2)ccn1 [Rebastinib] (10 nM) | 101 | 98.3 | 107 | 113 | 101 | 103 | 85 | 105 | 98.2 | 101 | 98.2 | 70.1 | 86.8 | 106 | 94.3 | 57 | 84.8 | 95.4 | 90.6 | 102 | normalised response (BT-549 [40]): 109%; normalised response (CAL-85-1 [41]): 98.7%; normalised response (CAL-120 [42]): 105%; normalised response (MFM-223 [43]): 96.8%; normalised response (HDQ-P1 [44]): 107%; normalised response (MDA-MB-436 [45]): 106%; normalised response (MDA-MB-231 [46]): 92%; normalised response (MDA-MB-453 [47]): 97.1%; normalised response (DU-4475 [48]): 109%; normalised response (HCC1599 [49]): 98.3%; normalised response (MDA-MB-468 [50]): 94.7%; normalised response (HCC1143 [51]): 104%; normalised response (CAL-148 [52]): 105%; normalised response (Hs578T [53]): 104%; normalised response (HCC1937 [54]): 102%; normalised response (MCF-10A [55]): 114%; normalised response (SK-BR-3 [56]): 101%
